Test results reported in ChEMBL document CHEMBL4390686, “Design, Synthesis, and Pharmacokinetic Evaluation of Phosphate and Amino Acid Ester Prodrugs for Improving the Oral Bioavailability of the HIV-1 Protease Inhibitor Atazanavir” (J Med Chem, 2019).
In brackets after ≈: the same amount, converted by molar mass.

Key:
[1] = Drug recovery in intestinal content of closed loop rat intestinal model at 1 mg/kg administered as cassette dose by LC/MS analysis; format: ADME, organism-based; settings: in vivo
[2] = Elimination half life in rat hepatocytes at 1 uM in presence of esterase inhibitor PMSF; format: ADME, cell-based, Hepatocyte; settings: with PMSF (esterase inhibitor), read-out: beta t1/2
UGT1A1 [3] = biological target: T1, UGT1A1 (Rattus norvegicus, UniProt Q64550); experiment: Ratio of test compound IC50 to atazanavir IC50 for recombinant rat UGT1A1; format: ADME; settings: read-out: Ratio IC50
T1 sequence (Q64550 whole entry): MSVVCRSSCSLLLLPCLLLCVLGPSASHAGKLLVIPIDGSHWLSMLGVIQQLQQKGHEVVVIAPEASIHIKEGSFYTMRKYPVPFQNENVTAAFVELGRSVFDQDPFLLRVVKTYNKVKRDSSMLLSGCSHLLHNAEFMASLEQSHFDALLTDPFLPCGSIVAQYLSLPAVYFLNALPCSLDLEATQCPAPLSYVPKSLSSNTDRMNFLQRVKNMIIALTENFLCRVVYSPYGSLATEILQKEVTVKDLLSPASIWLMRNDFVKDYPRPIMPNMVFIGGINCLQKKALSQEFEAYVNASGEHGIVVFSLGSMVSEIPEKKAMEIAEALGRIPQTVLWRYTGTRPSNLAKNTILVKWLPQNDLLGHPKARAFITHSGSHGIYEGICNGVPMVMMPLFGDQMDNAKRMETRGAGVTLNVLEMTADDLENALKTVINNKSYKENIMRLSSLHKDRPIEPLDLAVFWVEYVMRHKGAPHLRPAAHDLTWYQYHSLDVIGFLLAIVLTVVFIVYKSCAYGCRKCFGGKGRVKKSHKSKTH

[4] = Prodrug conversion in rat hepatocytes assessed as pseudo first order rate constant for atazanavir formation at 1 uM in presence of esterase inhibitor PMSF/CYP450 inhibitor ABT; format: ADME, cell-based, Hepatocyte
in vitro = settings: human, Caco-2
Description: Apparent permeability across apical to basolateral side in human Caco2 cells at 2 uM

[5] = Half life in rat whole blood at 1 uM by UPLC-MS/MS analysis; format: ADME, tissue-based
[6] = Ratio of test compound to atazanavir aqueous solubility in pH 5 buffer by RP-UPLC analysis; format: physicochemical
[7] = Prodrug conversion in rat hepatocytes assessed as pseudo first order rate constant for atazanavir formation at 1 uM in absence of esterase inhibitor PMSF/CYP450 inhibitor ABT; format: ADME, cell-based, Hepatocyte
[8] = Aqueous solubility of the compound in pH 5 buffer by RP-UPLC analysis; format: physicochemical
physchem [9] = settings: 30% CH3CN/phosphate buffer, pH 6.5
Description: Half life in pH 6.5 30%CH3CN/phosphate buffer at 50 mM by RP-UPLC analysis

[10] = Tmax in cannulated Sprague-Dawley rat assessed as atazanavir level at 30 mg/kg equiv of atazanavir administered orally by UPLC/MS/MS analysis; format: ADME, organism-based; settings: in vivo, po
[11] = Drug metabolism in cannulated Sprague-Dawley rat assessed as prodrug to atazanavir ratio at 30 mg/kg equiv of atazanavir administered orally by UPLC/MS/MS analysis; format: ADME, organism-based; settings: in vivo, po
[12] = Ratio of test compound to atazanavir aqueous solubility in pH 6.5 phosphate buffer by RP-UPLC analysis; format: physicochemical
[13] = Stability in simulated gastric fluid assessed as porcine pepsin-mediated compound hydrolysis at 1 mL measured up to 1 hr at pH 1.2 by HPLC analysis; format: ADME, Sus scrofa; settings: pig, isolated protein, pH 1.2, 1 h
[14] = Tmax in cannulated Sprague-Dawley rat assessed as atazanavir level at 6 mg/kg equiv of atazanavir administered orally by UPLC/MS/MS analysis; format: ADME, organism-based; settings: in vivo, po
physchem [15] = settings: phosphate buffer, pH 6.5
Description: Aqueous solubility of the compound in pH 6.5 phosphate buffer by RP-UPLC analysis

[16] = Cmax in cannulated Sprague-Dawley rat assessed as atazanavir level at 30 mg/kg equiv of atazanavir administered orally by UPLC/MS/MS analysis; format: ADME, organism-based; parameters: dose 30 mg/kg, route oral; settings: in vivo, po
[17] = Aqueous solubility of the compound in pH 4 citrate buffer by RP-UPLC analysis; format: physicochemical
UGT1A1 [18] = experiment: Ratio of test compound IC50 to atazanavir IC50 for recombinant cynomolgus monkey UGT1A1; format: ADME, Macaca fascicularis; settings: read-out: Ratio IC50
[19] = biological target: T2, UDP-glucuronosyltransferase 1A1 (Rattus norvegicus, UniProt Q64550); experiment: Inhibition of recombinant rat UGT1A1 using beta-estradiol as substrate preincubated for 5 mins followed by substrate addition and measured after 40 mins by LC-MS/MS analysis; format: ADME
T2 sequence (Q64550 whole entry): T1 sequence (Q64550 whole entry)

[20] = Cmin in cannulated Sprague-Dawley rat assessed as atazanavir level at 30 mg/kg equiv of atazanavir administered orally measured after 24 hrs by UPLC/MS/MS analysis; format: ADME, organism-based; settings: in vivo, po, read-out: Cmin
[21] = Ratio of test compound to atazanavir aqueous solubility in pH 3 buffer by RP-UPLC analysis; format: physicochemical
[22] = Ratio of test compound to atazanavir aqueous solubility in pH 4 citrate buffer by RP-UPLC analysis; format: physicochemical
physchem [23] = settings: HCl buffer, pH 1
Description: Aqueous solubility of the compound in pH 1 HCl buffer by RP-UPLC analysis

[24] = Prodrug conversion in rat hepatocytes assessed as pseudo first order rate constant for atazanavir formation at 1 uM in presence of CYP450 inhibitor ABT; format: ADME, cell-based, Hepatocyte
[25] = Prodrug conversion in rat hepatocytes assessed as pseudo first order rate constant for atazanavir formation at 1 uM in presence of esterase inhibitor PMSF; format: ADME, cell-based, Hepatocyte
[26] = Elimination half life in rat hepatocytes at 1 uM in presence of esterase inhibitor PMSF/CYP450 inhibitor ABT; format: ADME, cell-based, Hepatocyte; settings: read-out: beta t1/2
[27] = rat, in vivo, po, 3 mg/kg
[28] = Drug metabolism in cannulated Sprague-Dawley rat assessed as prodrug to atazanavir ratio at 6 mg/kg equiv of atazanavir administered orally by UPLC/MS/MS analysis; format: ADME, organism-based; settings: in vivo, po

COC(=O)N[C@H](C(=O)N[C@@H](Cc1ccccc1)[C@H](CN(Cc1ccc(-c2ccccn2)cc1)NC(=O)[C@@H](NC(=O)OC)C(C)(C)C)OC(=O)[C@@H](N)Cc1ccccc1)C(C)(C)C
Drug recovery [1]: 32% | half-life at 1 µM [2]: 1.28 h | selectivity ratio (UGT1A1 [3]): 3 | K [4]: 0.0014 min⁻¹ | Papp A→B at 2 µM (in vitro): < 1.5 ×10⁻⁶ cm/s | half-life at 1 µM [5]: > 2 h | Ratio [6]: 1300 | K [7]: 0.0164 min⁻¹ | solubility [8]: 1300 µg/mL (≈ 1530 µM) | half-life at 50000 µM (physchem [9]): > 500 h | Tmax [10]: 0.8 h | Ratio [11]: 0.3 | Ratio [12]: 27 | Stability [13]: Stable | Tmax [14]: 0.5 h | solubility (physchem [15]): 27 µg/mL (≈ 31.7 µM) | Cmax [16]: 4720 nM | solubility [17]: > 1100 µg/mL | selectivity ratio (UGT1A1 [18]): 17 | IC50 [19]: 12.6 µM | concentration [20]: 1 nM | Ratio [21]: 114 | Ratio [22]: 1100 | solubility (physchem [23]): > 1500 µg/mL | K [24]: 0.0042 min⁻¹ | K [25]: 0.0009 min⁻¹ | half-life at 1 µM [26]: > 2 h | Cmax [27]: 456 nM | Ratio [28]: 0.7
